Reference: patent US9168229B2, “Soft gelatin capsules” (ALTERGON S.A., priority 2005, dated 2015)

Test: Solubility of cyclodextrins in an aqueous gelatin/glycerin solution
Assay type: physicochemical
Procedure: The solubility of β-, γ and hydroxypropyl-β-(HPβ) cyclodextrin in the solution containing gelatin was verified. This study was conducted by dissolving quantities of 2.5% or of 5% (W/V) of β-, γ or hydroxypropyl-β-(HPβ) cyclodextrin in an aqueous solution containing 36% (W/W) of gelatin and 15% (W/W) of anhydrous glycerin.

[1] = 5% (W/V) cyclodextrin in aqueous solution containing 36% (W/W) gelatin and 15% (W/W) anhydrous glycerin

solubility in the solution containing gelatin [1] | solubility in the solution containing gelatin (2.5% (W/V) cyclodextrin in aqueous solution containing 36% (W/W) gelatin and 15% (W/W) anhydrous glycerin) | Compound
soluble | – | OC[C@H]1O[C@@H]2O[C@H]3[C@H](O)[C@@H](O)[C@@H](O[C@H]4[C@H](O)[C@@H](O)[C@@H](O[C@H]5[C@H](O)[C@@H](O)[C@@H](O[C@H]6[C@H](O)[C@@H](O)[C@@H](O[C@H]7[C@H](O)[C@@H](O)[C@@H](O[C@H]8[C@H](O)[C@@H](O)[C@@H](O[C@H]9[C@H](O)[C@@H](O)[C@@H](O[C@H]1[C@H](O)[C@H]2O)O[C@@H]9CO)O[C@@H]8CO)O[C@@H]7CO)O[C@@H]6CO)O[C@@H]5CO)O[C@@H]4CO)O[C@@H]3CO [γ-cyclodextrin]
opalescent mixture | soluble | OC[C@H]1O[C@@H]2O[C@H]3[C@H](O)[C@@H](O)[C@@H](O[C@H]4[C@H](O)[C@@H](O)[C@@H](O[C@H]5[C@H](O)[C@@H](O)[C@@H](O[C@H]6[C@H](O)[C@@H](O)[C@@H](O[C@H]7[C@H](O)[C@@H](O)[C@@H](O[C@H]8[C@H](O)[C@@H](O)[C@@H](O[C@H]1[C@H](O)[C@H]2O)O[C@@H]8CO)O[C@@H]7CO)O[C@@H]6CO)O[C@@H]5CO)O[C@@H]4CO)O[C@@H]3CO [β-cyclodextrin]
soluble | – | hydroxypropyl-β-cyclodextrin
